How the values were obtained:
Spodoptera littoralis = Spodoptera littoralis (Egyptian cotton leaf worm) cotton leaf disc spray test; format: in vivo; details: foliar, 72 h, application rate 200 ppm, L1 larvae, 3 days after infestation, vs untreated, read-out: control (at least one of mortality, anti-feedant effect, growth inhibition)
Procedure: Spodoptera littoralis (Egyptian Cotton Leaf Worm)
Cotton leaf discs were placed on agar in 24-well microtiter plates and sprayed with aqueous test solutions prepared from 10′000 ppm DMSO stock solutions. After drying the leaf discs were infested with five L1 larvae. The samples were assessed for mortality, anti-feedant effect, and growth inhibition in comparison to untreated samples 3 days after infestation. Control of Spodoptera littoralis by a test sample is when at least one of mortality, anti-feedant effect, and growth inhibition is higher than the untreated sample.

Plutella xylostella = Plutella xylostella (diamond back moth) artificial diet test; format: in vivo; details: 120 h, application rate 200 ppm, L2 larvae, 5 days after infestation, vs untreated, read-out: effect in at least one of the two categories (mortality or growth inhibition)
Procedure: Plutella xylostella (Diamond Back Moth):
24-well microtiter plates with artificial diet were treated with aqueous test solutions prepared from 10′000 ppm DMSO stock solutions by pipetting. After drying, the plates were infested with L2 larvae (10 to 15 per well). The samples were assessed for mortality and growth inhibition in comparison to untreated samples 5 days after infestation. The following compounds gave an effect of at least 80% in at least one of the two categories (mortality or growth inhibition) at an application rate of 200 ppm: 1, 2, 3, 4, 7, 8, 9, 10, 11, 12, 13, 14, 15, 16, 17, 18, 19, 20, 21, 22, 23, 24, 26, 27, 28 and 29.

Diabrotica balteata = Diabrotica balteata (corn root worm) maize sprout spray test; format: in vivo; details: 96 h, application rate 200 ppm, L2 larvae, 4 days after infestation, vs untreated, read-out: effect in at least one of the two categories (mortality or growth inhibition)
Procedure: Diabrotica balteata, (Corn Root Worm)
Maize sprouts, placed on an agar layer in 24-well microtiter plates were treated with aqueous test solutions prepared from 10′000 ppm DMSO stock solutions by spraying. After drying, the plates were infested with L2 larvae (6 to 10 per well). The samples were assessed for mortality and growth inhibition in comparison to untreated samples 4 days after infestation. The following compounds gave an effect of at least 80% in at least one of the two categories (mortality or growth inhibition) at an application rate of 200 ppm: 1, 2, 3, 4, 7, 8, 9, 11, 12, 13, 14, 15, 16, 17, 18, 19, 20, 21, 27, 28 and 29.

Thrips tabaci = Thrips tabaci (onion thrips) sunflower leaf disc spray test; format: in vivo; details: foliar, 144 h, application rate 200 ppm, population of mixed ages, 6 days after infestation
Procedure: Thrips tabaci (Onion Thrips):
(§1) Sunflower leaf discs were placed on agar in 24-well microtiter plates and sprayed with aqueous test solutions prepared from 10′000 ppm DMSO stock solutions. After drying the leaf discs were infested with a Thrips population of mixed ages. The samples were assessed for mortality 6 days after infestation.

Tetranychus urticae = Tetranychus urticae (two-spotted spider mite) bean leaf disc spray test; format: in vivo; details: foliar, 192 h, application rate 200 ppm, 8 days after infestation, read-out: mortality on mixed population (mobile stages)
Procedure: Tetranychus urticae (Two-Spotted Spider Mite):
as §1, with “Bean” for “Sunflower”, “discs” for “discs were placed”, “were” for “and”, “mite” for “Thrips”, “on mixed population (mobile stages) 8” for “6”

Euschistus heros = Euschistus heros (neotropical brown stink bug) soybean leaf spray test; format: in vivo; details: 120 h, application rate 200 ppm, N2 nymphs, 5 days after infestation, vs untreated, read-out: effect in at least one of the two categories (mortality or growth inhibition)
Procedure: Euschistus heros (Neotropical Brown Stink Bug)
Soybean leaves on agar in 24-well microtiter plates were sprayed with aqueous test solutions prepared from 10′000 ppm DMSO stock solutions. After drying the leaves were infested with N2 nymphs. The samples were assessed for mortality and growth inhibition in comparison to untreated samples 5 days after infestation. The following compounds gave an effect of at least 80% in at least one of the two categories (mortality or growth inhibition) at an application rate of 200 ppm: 1, 2, 3, 7, 8, 9, 12, 13, 14, 15, 17, 18, 21, 25, 26, 27, 28 and 29.

| melting point [°C] | SMILES | percent control (mortality, anti-feedant effect or growth inhibition) at 200 ppm (Spodoptera littoralis) [%] | percent effect (mortality or growth inhibition) at 200 ppm (Plutella xylostella) [%] | percent effect (mortality or growth inhibition) at 200 ppm (Diabrotica balteata) [%] | mortality at 200 ppm (Thrips tabaci) [%] | mortality at 200 ppm (Tetranychus urticae) [%] | percent effect (mortality or growth inhibition) at 200 ppm (Euschistus heros) [%] |
| --- | --- | --- | --- | --- | --- | --- | --- |
|  | CN(C(=O)c1cc(-c2cn(-c3c(C(F)(F)F)c(C(F)(F)C(F)(F)F)nn3C)nn2)sc1C#N)C1CC1 [Compound 2, 2-cyano-N-cyclopropyl-N-methyl-5-[1-[2-methyl-5-(1,1,2,2,2-pentafluoroethyl)-4-(trifluoromethyl)pyrazol-3-yl]triazol-4-yl]thiophene-3-carboxamide] | ≥ 80 | ≥ 80 | ≥ 80 | ≥ 80 | ≥ 80 | ≥ 80 |
|  | CCN(C(=O)c1cc(-c2cn(-c3c(C(F)(F)F)c(C(F)(F)C(F)(F)F)nn3C)nn2)sc1C#N)C1CC1 [Compound 3, 2-cyano-N-cyclopropyl-N-ethyl-5-[1-[2-methyl-5-(1,1,2,2,2-pentafluoroethyl)-4-(trifluoromethyl)pyrazol-3-yl]triazol-4-yl]thiophene-3-carboxamide] | ≥ 80 | ≥ 80 | ≥ 80 | ≥ 80 | ≥ 80 | ≥ 80 |
| 185 to 187 | CN(C(=O)c1cc(-c2cn(-c3c(C(F)(F)F)c(C(F)(F)C(F)(F)F)nn3C)nn2)sc1C#N)C1(C#N)CC1 [Compound 5, 2-cyano-N-(1-cyanocyclopropyl)-N-methyl-5-[1-[2-methyl-5-(1,1,2,2,2-pentafluoroethyl)-4-(trifluoromethyl)pyrazol-3-yl]triazol-4-yl]thiophene-3-carboxamide] |  |  |  |  |  |  |
| 62 to 64 | CCN(C(=O)c1cc(-c2cn(-c3c(C(F)(F)F)c(C(F)(F)C(F)(F)F)nn3C)nn2)sc1C#N)C1(C#N)CC1 [Compound 6, 2-cyano-N-(1-cyanocyclopropyl)-N-ethyl-5-[1-[2-methyl-5-(1,1,2,2,2-pentafluoroethyl)-4-(trifluoromethyl)pyrazol-3-yl]triazol-4-yl]thiophene-3-carboxamide] |  |  |  |  |  |  |
|  | Cn1nc(C(F)(F)C(F)(F)F)c(C(F)(F)F)c1-n1cc(-c2cc(C(=O)NC3CC3)c(Cl)s2)nn1 [Compound 7, 2-chloro-N-cyclopropyl-5-[1-[2-methyl-5-(1,1,2,2,2-pentafluoroethyl)-4-(trifluoromethyl)pyrazol-3-yl]triazol-4-yl]thiophene-3-carboxamide] | ≥ 80 | ≥ 80 | ≥ 80 | ≥ 80 | ≥ 80 | ≥ 80 |
|  | Cn1nc(C(F)(F)C(F)(F)F)c(C(F)(F)F)c1-c1cc(-c2cc(C(=O)NC3CC3)c(C#N)s2)on1 [Compound 13, 2-cyano-N-cyclopropyl-5-[3-[2-methyl-5-(1,1,2,2,2-pentafluoroethyl)-4-(trifluoromethyl)pyrazol-3-yl]isoxazol-5-yl]thiophene-3-carboxamide] | ≥ 80 | ≥ 80 | ≥ 80 | ≥ 80 | ≥ 80 | ≥ 80 |
|  | CN(C(=O)c1cc(-c2cc(-c3c(C(F)(F)F)c(C(F)(F)C(F)(F)F)nn3C)no2)sc1C#N)C1CC1 [Compound 14, 2-cyano-N-cyclopropyl-N-methyl-5-[3-[2-methyl-5-(1,1,2,2,2-pentafluoroethyl)-4-(trifluoromethyl)pyrazol-3-yl]isoxazol-5-yl]thiophene-3-carboxamide] | ≥ 80 | ≥ 80 | ≥ 80 | ≥ 80 | ≥ 80 | ≥ 80 |
|  | CCN(C(=O)c1cc(-c2cc(-c3c(C(F)(F)F)c(C(F)(F)C(F)(F)F)nn3C)no2)sc1C#N)C1CC1 [Compound 15, 2-cyano-N-cyclopropyl-N-ethyl-5-[3-[2-methyl-5-(1,1,2,2,2-pentafluoroethyl)-4-(trifluoromethyl)pyrazol-3-yl]isoxazol-5-yl]thiophene-3-carboxamide] | ≥ 80 | ≥ 80 | ≥ 80 | ≥ 80 | ≥ 80 | ≥ 80 |
|  | CN(C(=O)c1cc(-c2cc(-c3c(C(F)(F)F)c(C(F)(F)C(F)(F)F)nn3C)no2)sc1C#N)C1(C#N)CC1 [Compound 17, 2-cyano-N-(1-cyanocyclopropyl)-N-methyl-5-[3-[2-methyl-5-(1,1,2,2,2-pentafluoroethyl)-4-(trifluoromethyl)pyrazol-3-yl]isoxazol-5-yl]thiophene-3-carboxamide] | ≥ 80 | ≥ 80 | ≥ 80 | ≥ 80 | ≥ 80 | ≥ 80 |
|  | Cn1nc(C(F)(F)C(F)(F)F)c(C(F)(F)F)c1-c1csc(-c2cc(C(=O)NC3CC3)c(C#N)s2)c1 [Compound 27, 2-cyano-N-cyclopropyl-5-[4-[2-methyl-5-(1,1,2,2,2-pentafluoroethyl)-4-(trifluoromethyl)pyrazol-3-yl]-2-thienyl]thiophene-3-carboxamide] | ≥ 80 | ≥ 80 | ≥ 80 | ≥ 80 | ≥ 80 | ≥ 80 |
|  | CN(C(=O)c1cc(-c2cc(-c3c(C(F)(F)F)c(C(F)(F)C(F)(F)F)nn3C)cs2)sc1C#N)C1CC1 [Compound 28, 2-cyano-N-cyclopropyl-N-methyl-5-[4-[2-methyl-5-(1,1,2,2,2-pentafluoroethyl)-4-(trifluoromethyl)pyrazol-3-yl]-2-thienyl]thiophene-3-carboxamide] | ≥ 80 | ≥ 80 | ≥ 80 | ≥ 80 | ≥ 80 | ≥ 80 |
|  | CCN(C(=O)c1cc(-c2cc(-c3c(C(F)(F)F)c(C(F)(F)C(F)(F)F)nn3C)cs2)sc1C#N)C1CC1 [Compound 29, 2-cyano-N-cyclopropyl-N-ethyl-5-[4-[2-methyl-5-(1,1,2,2,2-pentafluoroethyl)-4-(trifluoromethyl)pyrazol-3-yl]-2-thienyl]thiophene-3-carboxamide] | ≥ 80 | ≥ 80 | ≥ 80 | ≥ 80 | ≥ 80 | ≥ 80 |
